The record followed here is US10499643B2, “Synergistic herbicidal composition and the method of controlling the growth of undesired plants” (JIANGSU ROTAM CHEMISTRY CO., LTD, priority 2016, dated 2019).

The test system of this assay is gramineous weeds, broadleaf weeds, sedge weeds. Kind of assay: Post-emergence test: stem and leaf treatment of potted weeds, fresh weight inhibition rate, synergy by Colby's equation. It is filed as in vivo. The method, then:
The assessment on the synergistic effect of mixing two or more herbicidal active ingredients is determined based on the Colby's equation as described in “Calculation Synergistic and Antagonistic Response of Herbicide Combinations (Weeds 15/1 (1967), S. R. Colby)”.
Use stem and leaf treatment for potted grown plant (NY/T 1155.4-2006): fill a plastic pot (6 cm height, 9 cm diameter) with a quantity of soil and sow 15 to 20 seeds of monocotyledonous weeds and dicotyledonous weeds in the plastic pot, cover it with 0.5 to 1 cm thick of fine soil and then put it in greenhouse for cultivation. When weeds grow to the 2 to 4 leave stage, conduct the stem and leaf spray treatment with 1 mL herbicidal solution on each pot and repeat four times for each treatment and leave some pots untreated as control group. Keep the treated pots in a greenhouse for cultivation and observe the growing status of target weeds periodically. Conduct the visual test on the target weeds regarding the damage symptoms and growth inhibition effect after 21 days. Weigh up the fresh weight above the ground or plant fresh weight and evaluate the toxicity of the herbicidal formulation on target weeds based on the fresh weight inhibition rate of the target.
Prepare the following three formulations according to specific weight percentages: 1. Pyroxasulfone; 2. […] After that, dilute above formulations with water to obtain diluted formulations.
Conduct visual assessment the damage symptom and growth inhibition status of target weeds after 21 days. Weigh up the fresh weight above the ground and calculate the inhibition rate of fresh weight (%).
The assessment on the synergistic effect of mixing two or more herbicidal active ingredients is determined based on the Colby's equation as described in “Calculation Synergistic and Antagonistic Response of Herbicide Combinations (Weeds 15/1(1967), S. R. Colby)”.
Wherein, X represents Fresh Weight Inhibition Rate of Pyroxasulfone when applied alone at certain application rate against target weeds;

As to `Cn1nc(C(F)(F)F)c(CS(=O)(=O)C2=NOC(C)(C)C2)c1OC(F)F` [Pyroxasulfone, 3-[5-(difluoromethoxy)-1-methyl-3-(trifluoromethyl)pyrazol-4-ylmethylsulfonyl]-4,5-dihydro-5,5-dimethyl-1,2-oxazole], for the setting “post-emergence, Pyroxasulfone 1 g ai/ha alone, read-out: Herbicidal Activity % Experimental Data”, the inhibition at 1 g/ha is 11%. The inhibition at 5 g/ha (post-emergence, Pyroxasulfone 5 g ai/ha alone, read-out: Herbicidal Activity % Experimental Data) was found to be 22%. The inhibition at 10 g/ha (post-emergence, Pyroxasulfone 10 g ai/ha alone, read-out: Herbicidal Activity % Experimental Data) is 40%. In addition, under “post-emergence, Pyroxasulfone 25 g ai/ha alone, read-out: Herbicidal Activity % Experimental Data”, the inhibition at 25 g/ha turned out to be 49%. In addition, where the note is “post-emergence, Pyroxasulfone 50 g ai/ha alone, read-out: Herbicidal Activity % Experimental Data”, the inhibition at 50 g/ha was determined as 63%.
Take `COC(=O)c1sccc1S(=O)(=O)NC(=O)Nc1nc(C)nc(OC)n1` [Thifensulfuron methyl]: the “Herbicidal Activity % Experimental Data” value runs as follows: (Thifensulfuron methyl 1 g ai/ha alone) 0%; (Thifensulfuron methyl 5 g ai/ha alone) 15.5%; (Thifensulfuron methyl 10 g ai/ha alone) 31.2%; (Thifensulfuron methyl 25 g ai/ha alone) 55.1%; (Thifensulfuron methyl 50 g ai/ha alone) 60.3%.
